Molecular target: T1, human P2X7 receptor (Homo sapiens, UniProt Q99572, R270H)
T1 construct: expressed in transfected cells
T1 sequence (Q99572 1-595 R270H): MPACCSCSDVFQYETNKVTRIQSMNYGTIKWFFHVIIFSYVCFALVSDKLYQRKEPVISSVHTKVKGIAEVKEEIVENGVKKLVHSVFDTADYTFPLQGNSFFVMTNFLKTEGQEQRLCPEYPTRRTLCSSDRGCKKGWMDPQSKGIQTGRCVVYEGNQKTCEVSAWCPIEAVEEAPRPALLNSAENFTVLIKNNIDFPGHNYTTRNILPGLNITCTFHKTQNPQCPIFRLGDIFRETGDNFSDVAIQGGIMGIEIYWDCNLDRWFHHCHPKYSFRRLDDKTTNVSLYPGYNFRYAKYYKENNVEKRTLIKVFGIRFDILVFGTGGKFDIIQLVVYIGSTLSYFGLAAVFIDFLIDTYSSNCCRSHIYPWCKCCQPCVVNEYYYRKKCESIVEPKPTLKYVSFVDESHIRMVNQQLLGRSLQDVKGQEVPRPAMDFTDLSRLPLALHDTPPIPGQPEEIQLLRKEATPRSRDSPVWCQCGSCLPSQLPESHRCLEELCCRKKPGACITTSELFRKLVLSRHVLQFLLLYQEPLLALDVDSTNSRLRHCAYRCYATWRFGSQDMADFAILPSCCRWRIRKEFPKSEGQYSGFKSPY
Test: Evaluation of a human P2X7 receptor inhibitory activity (Yo-Pro uptake, BzATP stimulation, FLIPR TETRA)
Format: cell-based
Conditions: antagonistic activity for the human P2X7 receptor, 1321N1 cell transfected with the human P2X7 receptor gene, Yo-Pro fluorescence
Experimental: Test Example 1 Evaluation of a Human P2X7 Receptor Inhibitory Activity
Stably expressing cell line (1321N1 cell transfected with the human P2X7 receptor gene (GenBank accession number NM_002562.5 including T606C and G952A SNP)) was used. The cells were seeded in a 384-well microtiter plate at a concentration of 8000 cells/well and cultured in the medium (10% fetal bovine serum, 25 mM HEPES, 1% penicillin and streptomycin in DMEM) for one day at 37° C. under 5% carbon dioxide atmosphere. After replacing with 20 μL of the HBSS buffer (20 mM HEPES. 55.6 mM D-glucose, 1×HBSS(−), pH 7.4-7.5), 15 μL of 17.3 μM Yo-Pro solution in the HBSS buffer was added. The plate was placed in high-throughput cellular screening system FLIPR TETRA (Molecullar Devices, LLC.) and 15 μL of 130 μM BzATP solution in the HBSS buffer was added. Measurement of fluorescence intensity by FLIPR TETRA was started. After eight minutes, 15 μL of DMSO solutions containing different concentrations of the compound of the present invention as prepared by dilution with the HBSS buffer were dispensed to each well through the built-in automatic dispenser, and the measurement of fluorescence intensity was continued for 20 minutes. The maximum fluorescence intensity without the compound of the present invention is calculated as 0% inhibition and the maximum fluorescence intensity when the reference compound was added is calculated as 100% inhibition. Changing values of fluorescence intensity by the compound of the present invention were calculated by difference between maximum and minimum fluorescence intensity for 20 minutes. Inhibition ratios (%) were calculated from the following equation:
[formula] IC50 was calculated using logistic approximation.

| SMILES | IC50 (class symbols) [nM] | IC50 [nM] |
| --- | --- | --- |
| O=c1ccn(Cc2cccc(OC(F)(F)F)c2)c(-c2cccc(C(F)(F)F)c2Cl)c1 [Compound I-031] | 1000 to 10000 |  |
| COc1cccc(Cn2ccc(=O)cc2-c2cccc(C(F)(F)F)c2Cl)n1 [Compound I-032] | 500 to 1000 |  |
| O=c1ccn(Cc2ccccc2C(F)(F)F)c(-c2cccc(C(F)(F)F)c2Cl)c1 [Compound I-033] | 100 to 500 |  |
| O=c1ccn(Cc2cccc(=O)[nH]2)c(-c2cccc(C(F)(F)F)c2Cl)c1 [Compound I-034] | 500 to 1000 |  |
| O=c1ccn(Cc2cccc(CO)c2)c(-c2cccc(C(F)(F)F)c2Cl)c1 [Compound I-035] | 100 to 500 |  |
| O=c1ccn(Cc2cccc(Oc3ccccc3)c2)c(-c2cccc(C(F)(F)F)c2Cl)c1 [Compound I-036] | 500 to 1000 |  |
| CC(C)NC(=O)Nc1cccc(Cn2ccc(=O)cc2-c2cccc(C(F)(F)F)c2Cl)c1 [Compound I-037] | 100 to 500 |  |
| COc1ccc(-c2noc(Cn3ccc(=O)cc3-c3cccc(C(F)(F)F)c3Cl)n2)cc1 [Compound I-038] | 1000 to 10000 |  |
| O=c1ccn(Cc2ccccc2-c2ccccc2)c(-c2cccc(C(F)(F)F)c2Cl)c1 [Compound I-039] | 1000 to 10000 |  |
| COc1ccc(Cn2ccc(=O)cc2-c2cccc(C(F)(F)F)c2Cl)cc1 [Compound I-040] | 1000 to 10000 |  |
| O=c1ccn(Cc2ccc(Cl)cc2)c(-c2cccc(C(F)(F)F)c2Cl)c1 [Compound I-041] | 1000 to 10000 |  |
| O=c1ccn(Cc2nc3ccccc3s2)c(-c2cccc(C(F)(F)F)c2Cl)c1 [Compound I-042] | 1000 to 10000 |  |
| O=c1ccn(Cc2ccc(-c3ccccc3)cc2)c(-c2cccc(C(F)(F)F)c2Cl)c1 [Compound I-043] | 1000 to 10000 |  |
| O=c1ccn(Cc2cccc3cccnc23)c(-c2cccc(C(F)(F)F)c2Cl)c1 [Compound I-044] | 500 to 1000 |  |
| O=c1ccn(Cc2ccccc2-c2cccs2)c(-c2cccc(C(F)(F)F)c2Cl)c1 [Compound I-045] | 1000 to 10000 |  |
| O=c1ccn(Cc2cccc3c2OCCCO3)c(-c2cccc(C(F)(F)F)c2Cl)c1 [Compound I-046] | 100 to 500 |  |
| O=c1ccn(Cc2cccc(-c3cccs3)c2)c(-c2cccc(C(F)(F)F)c2Cl)c1 [Compound I-047] | 1000 to 10000 |  |
| O=c1ccn(Cc2cccc3ccsc23)c(-c2cccc(C(F)(F)F)c2Cl)c1 [Compound I-048] |  | 110 |
| O=c1ccn(Cc2ccccc2OCc2ccccc2)c(-c2cccc(C(F)(F)F)c2Cl)c1 [Compound I-049] | 100 to 500 |  |
| O=c1ccn(Cc2cccc(C(F)(F)F)c2)c(-c2cccc(C(F)(F)F)c2Cl)c1 [Compound I-050] | 1000 to 10000 |  |

| SMILES | IC50 (class symbols) [nM] | IC50 [nM] |
| --- | --- | --- |
| O=c1ccn(Cc2ccc3ccccc3c2)c(-c2cccc(C(F)(F)F)c2Cl)c1 [Compound I-051] | 500 to 1000 |  |
| O=c1ccn(Cc2ccc(C(F)(F)F)cc2)c(-c2cccc(C(F)(F)F)c2Cl)c1 [Compound I-052] | 1000 to 10000 |  |
| O=c1ccn(Cc2cccnc2)c(-c2cccc(C(F)(F)F)c2Cl)c1 [Compound I-053] | 500 to 1000 |  |
| O=c1ccn(Cc2c(F)cccc2F)c(-c2cccc(C(F)(F)F)c2Cl)c1 [Compound I-054] | 100 to 500 |  |
| O=c1ccn(Cc2cccc(Cl)c2)c(-c2cccc(C(F)(F)F)c2Cl)c1 [Compound I-055] | 100 to 500 |  |
| O=c1ccn(Cc2ccccc2CS(=O)(=O)c2ccccc2)c(-c2cccc(C(F)(F)F)c2Cl)c1 [Compound I-056] | 1000 to 10000 |  |
| COc1cccc(Cn2ccc(=O)cc2-c2cccc(C(F)(F)F)c2Cl)c1 [Compound I-057] | 100 to 500 |  |
| O=c1ccn(Cc2ccccn2)c(-c2cccc(C(F)(F)F)c2Cl)c1 [Compound I-058] | 500 to 1000 |  |
| O=c1ccn(Cc2ccccc2Cl)c(-c2cccc(C(F)(F)F)c2Cl)c1 [Compound I-059] | 100 to 500 |  |
| CS(=O)(=O)c1ccc(Cn2ccc(=O)cc2-c2cccc(C(F)(F)F)c2Cl)cc1 [Compound I-060] | 1000 to 10000 |  |
| O=c1ccn(Cc2cccc(-c3ccccc3)c2)c(-c2cccc(C(F)(F)F)c2Cl)c1 [Compound I-061] | 1000 to 10000 |  |
| O=c1ccn(Cc2cccc(F)c2F)c(-c2cccc(C(F)(F)F)c2Cl)c1 [Compound I-062] | 500 to 1000 |  |
| NC(=O)c1ccc(Cn2ccc(=O)cc2-c2cccc(C(F)(F)F)c2Cl)cc1 [Compound I-063] | 1000 to 10000 |  |
| O=c1ccn(Cc2ccc(OCc3ccccc3)cc2)c(-c2cccc(C(F)(F)F)c2Cl)c1 [Compound I-064] | 1000 to 10000 |  |
| O=c1ccn(Cc2ccon2)c(-c2cccc(C(F)(F)F)c2Cl)c1 [Compound I-065] | 1000 to 10000 |  |
| O=c1ccn(Cc2nc(C(F)(F)F)cs2)c(-c2cccc(C(F)(F)F)c2Cl)c1 [Compound I-066] | 1000 to 10000 |  |
| O=c1ccn(Cc2ccc(C(F)(F)F)o2)c(-c2cccc(C(F)(F)F)c2Cl)c1 [Compound I-067] | 500 to 1000 |  |
| Cc1cc(Cn2ccc(=O)cc2-c2cccc(C(F)(F)F)c2Cl)on1 [Compound I-068] | 1000 to 10000 |  |
| O=C(c1ccccc1)c1cccc(Cn2ccc(=O)cc2-c2cccc(C(F)(F)F)c2Cl)c1 [Compound I-069] | 500 to 1000 |  |
| O=c1ccn(Cc2ccc(Oc3ccccc3)cc2)c(-c2cccc(C(F)(F)F)c2Cl)c1 [Compound I-070] | 1000 to 10000 |  |

| SMILES | IC50 (class symbols) [nM] | IC50 [nM] |
| --- | --- | --- |
| COc1ccccc1Cn1ccc(=O)cc1-c1cccc(C(F)(F)F)c1Cl [Compound I-071] | 100 to 500 |  |
| CCOc1cn(Cc2ccccc2)c(-c2cccc(C(F)(F)F)c2Cl)cc1=O [Compound I-072] | < 50 |  |
| N#CCOc1cn(Cc2ccccc2)c(-c2cccc(C(F)(F)F)c2Cl)cc1=O [Compound I-073] | < 50 |  |
| COc1cn(Cc2ccccc2C)c(-c2cccc(C(F)(F)F)c2Cl)nc1=O [II-001] | < 50 |  |
| COc1cn(Cc2ccccc2C)c(-c2cccc3ncccc23)nc1=O [II-002] | 1000 to 10000 |  |
| Cc1ccccc1Cn1cc(Br)c(=O)nc1-c1cccc(C(F)(F)F)c1Cl [II-003] | < 50 |  |
| COc1cn(Cc2ccc(F)cc2)c(-c2cccc(C(F)(F)F)c2Cl)nc1=O [II-004] | 100 to 500 |  |
| COc1cn(Cc2ccccc2F)c(-c2cccc(C(F)(F)F)c2Cl)nc1=O [II-005] | 50 to 100 |  |
| COc1cn(Cc2cccc(F)c2)c(-c2cccc(C(F)(F)F)c2Cl)nc1=O [II-006] | 50 to 100 |  |
| COc1cn(Cc2ccc(F)cc2C)c(-c2cccc(C(F)(F)F)c2Cl)nc1=O [II-007] | 50 to 100 |  |
| COc1cn(Cc2ccccc2)c(-c2cccc(C(F)(F)F)c2Cl)nc1=O [II-008] |  | 41 |
| COc1cn(Cc2cccnc2)c(-c2cccc(C(F)(F)F)c2Cl)nc1=O [II-009] | 100 to 500 |  |
| Cc1ccccc1Cn1cc(C)c(=O)nc1-c1cccc(C(F)(F)F)c1Cl [II-010] | < 50 |  |
| Cc1ccccc1Cn1cc(F)c(=O)nc1-c1cccc(C(F)(F)F)c1Cl [II-011] | < 50 |  |
| COc1cn(Cc2ccccc2C#N)c(-c2cccc(C(F)(F)F)c2Cl)nc1=O [II-012] | 100 to 500 |  |
| COc1cn(Cc2cccc(C#N)c2)c(-c2cccc(C(F)(F)F)c2Cl)nc1=O [II-013] | 100 to 500 |  |
| COc1cn(Cc2ccc(C#N)cc2)c(-c2cccc(C(F)(F)F)c2Cl)nc1=O [II-014] | 1000 to 10000 |  |
| COc1cn(Cc2ccccc2CO)c(-c2cccc(C(F)(F)F)c2Cl)nc1=O [II-015] | < 50 |  |
| COc1cn(Cc2ccc(C)cc2)c(-c2cccc(C(F)(F)F)c2Cl)nc1=O [II-016] | 500 to 1000 |  |
| COc1cn(Cc2cccc(C)c2)c(-c2cccc(C(F)(F)F)c2Cl)nc1=O [II-017] | 100 to 500 |  |
